Article PMC10527105, “Chirality Matters: Fine-Tuning of Novel Monoamine Reuptake Inhibitors Selectivity through Manipulation of Stereochemistry” (Biomolecules, 2023)

Tests used:
[1] = target: T1, human serotonin transporter/SLC6A4 (SERT) (Homo sapiens, UniProt P31645); assay: Cellular uptake experiments: [3H]-serotonin reuptake inhibition in transporter-expressing HEK293 cells; format: cell-based; conditions: Reuptake Inhibition (IC50 ± SE, µM) SERT, cells stably expressing SERT; [3H]-serotonin 1 µM; screening cut-off 50 µM
T1 construct: expressed in transfected cells; host or cells: HEK293
Outline: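 Stably transfected HEK293 cells preincubated 5 min with compound, then 1 µM [3H]-substrate for 2.5 min (SERT: 5 min) at 25 °C, pH 7.1 buffer; uptake counted by scintillation. Nonspecific uptake defined with 10 µM mazindol (DAT, NET) or 10 µM clomipramine (SERT).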

human NET = target: T2, human NET (Homo sapiens, UniProt P23975); assay: Radioligand binding assay, [3H]nisoxetine, CHO cells (Eurofins Cerep); conditions: human NET expressed in CHO cells; read-out: Ki, binding sites of the NET (against [3H]nisoxetine)
T2 construct: host or cells: CHO
Method: Binding experiments. Binding affinity to the human DAT, SERT, and NET stable proteins expressed in CHO cells was evaluated in in vitro radioligand binding assays. Non-specific binding was determined using [^3H]BTCP, [^3H]imipramine, and ^[3H] nisoxetine for hDAT, hSERT, and hNET, respectively. The IC50 values were calculated by non-linear regression analysis of the competition curves generated from the mean replicate values. The Ki values were calculated using the Cheng–Prusoff equation (Ki = IC50/(1 + […])). Binding assays were carried out by Eurofins (Cerep SA, Celle l’Evescault, France), Study No. 100053935. For an in-depth description, please refer to the report in the supporting information file.

[2] = test system: extracellular DA levels in the hippocampus; assay: In vivo micro-dialysis in freely moving mice; set-up: species or system C57BL76J mice; conditions: for treatment effect on extracellular DA levels in hippocampus: 1 mg/kg i.p., experimental day 1; for time course of extracellular DA levels after the peak / increase of extracellular DA levels in hippocampus: 10 mg/kg i.p.; for time course of extracellular DA levels after the peak: experimental day 2; for increase of extracellular DA levels in hippocampus: experimental day 2, within 20 min of administration, relative to baseline
Method: Male, adult C57BL76J mice (Janvier-Labs, Saint Berthevin, France) were group-housed in individually ventilated cages under standard laboratory conditions (temperature 22 ± 2 °C, humidity 45–65%, with a 12:12 h light-dark cycle lights on at 07:00 h). Animals had free access to food and water. All experimental procedures were approved by the Austrian Animal Experimentation Ethical Committee (Bundesministerium für Wissenschaft, Forschung und Wirtschaft, Kommission für Tierversuchsangelegenheiten) in compliance with international laws and policies.
Under isoflurane anesthesia (at 5% and 1.5% for induction and maintenance, respectively), a commercially available guide cannula (MAB 4.15 with OD 0.48 mm and ID 0.35 mm, Microbiotech, Stockholm, Sweden) was implanted above the right hippocampus (AP = −2.1 mm, ML = +1.5 mm, DV = −0.7 mm from Bregma) and closed with a dummy probe as described previously. After surgery, animals received buprenorphine (0.5 mg/kg s.c.) and meloxicam (1.0 mg/kg p.o. via the drinking water) for analgesic care. They were allowed to recover for 5–7 days while being single-housed and habituated to the experimenter and experimental procedures. On the day before the experiment, the dummy was replaced by a microdialysis probe (MAB 4.15.1 PES, Microbiotech, Sweden) that extended the guide cannula by 1 mm, thus reaching into the dorsal hippocampus. Microdialysis probes were connected to a microinfusion pump (CMA, Stockholm, Sweden) and a swivel-tether system via polyethylene tubing. Probes were constantly superfused with artificial cerebrospinal fluid (aCSF); consisting of in mM: 140 NaCl, 3.0 KCl, 1.2 CaCl2, 1.0 MgCl2, 1.0 Na2HPO4, pH 7.4, at a flow rate of 0.5 µL/min overnight and 1.0 µL/min during sample collection, respectively. Microdialysis fractions were collected every 20 min in pre-cooled microtubes containing antioxidative protection solution (in mM: 0.27 Na2EDTA, 100 acetic acid, 0.0125 ascorbic acid), vortexed, and immediately frozen at −80 °C until further analysis. At any time, the dead volumes generated by the inlet and outlet systems were considered to cause a temporal delay in fraction collection.
On experimental day 1, vehicle (30% Kolliphor EL) or one of the two enantiomers -7h and 8h (1 mg/kg) was administered i.p. after six baseline samples, and another 12 samples were collected. On experimental day 2, the collection of dialysates was resumed. Again, 6 baseline samples and 12 samples after the administration of either vehicle (30% Kolliphor EL) or 7h/8h (10 mg/kg) were collected. At the end of the experiment, microdialysis probes were superfused with high (100 mM) depolarizing concentrations of potassium (K^+) containing aCSF in order to elicit local […] for testing the functionality of the microdialysis system. Thereafter, animals were euthanized with an overdose of thiopental, decapitated, and their brains removed. The localization of the microdialysis probe was verified by observing cresyl violet-stained coronal sections (40 µm) under a light microscope. Three animals were removed from the analysis due to misplaced probes.
Quantification of dopamine in microdialysates. The quantification of dopamine in microdialysates was performed using a high-performance liquid chromatography (HPLC) system for electrochemical detection, as previously described. The HPLC system consisted of a Shimadzu (Kyoto, Japan) system controller (CBM-20A), a degassing unit (DGU-20A3R), and a micro HPLC pump (LC-20AD) operating at a flow rate of 55 µL/min. Microdialysis samples (5 µL) were injected via a SIL-20ACHT autosampler (Shimadzu, Japan) and separated on a C18 reversed-phase column (Inertsil ODS-3; 50 mm × 1.0 mm ID; 3 µm particle sizes, GL Sciences Inc., Tokyo, Japan) placed in a DECADE II electrochemical detector equipped with an amperometric flow cell (Antec, Zoeterwoude, The Netherlands). […]

T1 sequence (P31645 whole entry): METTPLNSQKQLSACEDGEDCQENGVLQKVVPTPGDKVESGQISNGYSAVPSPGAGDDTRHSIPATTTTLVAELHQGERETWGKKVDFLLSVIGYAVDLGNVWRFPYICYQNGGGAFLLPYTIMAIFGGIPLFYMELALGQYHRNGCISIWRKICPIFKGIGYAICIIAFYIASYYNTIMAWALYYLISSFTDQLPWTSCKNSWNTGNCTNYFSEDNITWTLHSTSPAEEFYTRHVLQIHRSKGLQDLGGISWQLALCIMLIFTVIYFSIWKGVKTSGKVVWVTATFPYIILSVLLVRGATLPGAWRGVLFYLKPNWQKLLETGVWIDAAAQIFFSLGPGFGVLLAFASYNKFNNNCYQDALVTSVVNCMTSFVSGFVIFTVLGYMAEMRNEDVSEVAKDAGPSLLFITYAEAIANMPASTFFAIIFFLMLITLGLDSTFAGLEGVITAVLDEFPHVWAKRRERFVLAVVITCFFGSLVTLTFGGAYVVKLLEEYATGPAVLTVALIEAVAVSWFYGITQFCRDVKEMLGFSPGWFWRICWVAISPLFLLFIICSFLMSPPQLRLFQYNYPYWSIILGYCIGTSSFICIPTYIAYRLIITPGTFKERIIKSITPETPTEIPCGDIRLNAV
T2 sequence (P23975 whole entry): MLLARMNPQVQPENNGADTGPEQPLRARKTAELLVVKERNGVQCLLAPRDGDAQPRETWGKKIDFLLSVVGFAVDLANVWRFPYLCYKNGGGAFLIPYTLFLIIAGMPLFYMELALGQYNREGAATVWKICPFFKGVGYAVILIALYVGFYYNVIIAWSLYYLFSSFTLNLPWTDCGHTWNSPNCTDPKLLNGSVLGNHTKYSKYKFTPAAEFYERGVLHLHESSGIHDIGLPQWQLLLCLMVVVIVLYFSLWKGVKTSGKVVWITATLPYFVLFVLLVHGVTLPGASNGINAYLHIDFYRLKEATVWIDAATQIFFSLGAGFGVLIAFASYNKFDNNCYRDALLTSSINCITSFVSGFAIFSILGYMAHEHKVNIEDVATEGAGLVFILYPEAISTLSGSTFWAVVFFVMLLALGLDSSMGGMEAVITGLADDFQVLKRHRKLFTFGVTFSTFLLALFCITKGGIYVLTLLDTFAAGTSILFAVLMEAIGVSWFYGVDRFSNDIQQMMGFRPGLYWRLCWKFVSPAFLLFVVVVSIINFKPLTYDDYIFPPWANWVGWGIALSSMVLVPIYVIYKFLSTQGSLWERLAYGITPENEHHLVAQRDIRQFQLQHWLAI

Row | Structure (SMILES) | IC50 [1] [µM] | Ki (human NET) [µM] | treatment effect on extracellular DA levels in hippocampus [2] | time course of extracellular DA levels after the peak [2] | increase of extracellular DA levels in hippocampus [2]
1 | [O-][S@@+](Cc1cccs1)[C@@H](c1ccccc1)c1cccc(Br)c1 [Compound 7h, (S,S)-2-((((3-bromophenyl)(phenyl)methyl)sulfinyl)methyl)thiophene] | > 50 | > 10 | no treatment effect | remained elevated throughout a 2 h time period | approximately 35%
2 | [O-][S@+](Cc1cccs1)[C@H](c1ccccc1)c1cccc(Br)c1 [Compound 8h, (R,R)-2-((((3-bromophenyl)(phenyl)methyl)sulfinyl)methyl)thiophene] | 14 ± 3 | > 10 | no treatment effect | constantly declined from the peak values | approximately 35%
